Source: PubChem BioAssay AID180 (DTP/NCI, 2004)
Where “and” joins values, the source holds several entries; their conditions need not be identical. Equal values may be shown once.

Test system: BDF1 mice, Adenocarcinoma 755 s.c., tumor weight T/C
Assay: NCI In Vivo Anticancer Drug Screen. Data for tumor model Adenocarcinoma 755 (subcutaneous) in B6D2F1 (BDF1) mice
Details: endpoint: mean tumor weight, higher = larger tumour
In short: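 Compound activity was tested in mice carrying transplanted tumors. Survival or tumor size was measured, and each value is the treated-group measurement divided by that of the vehicle-treated control group (T/C).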

COc1cc([C@@H]2c3cc4c(cc3[C@H](O)[C@H]3COC(=O)[C@H]23)OCO4)cc(OC)c1OC
T/C (dose: 0.13 mg/kg/injection, schedule: Q01DX011 (ip), vehicle: carboxymethylcellulose (CMC)): 102 % of control
T/C (dose: 0.27 mg/kg/injection, schedule: Q01DX011 (ip), vehicle: carboxymethylcellulose (CMC)): 60 % of control and 80 % of control
T/C (dose: 0.54 mg/kg/injection, schedule: Q01DX011 (ip), vehicle: carboxymethylcellulose (CMC)): 109 % of control
T/C (dose: 0.55 mg/kg/injection, schedule: Q01DX011 (ip), vehicle: carboxymethylcellulose (CMC)): 76 % of control
T/C (dose: 1.08 mg/kg/injection, schedule: Q01DX011 (ip), vehicle: carboxymethylcellulose (CMC)): 120 % of control
T/C (dose: 1.1 mg/kg/injection, schedule: Q01DX011 (ip), vehicle: carboxymethylcellulose (CMC)): 117 % of control

C[C@@H]1C[C@@H]([C@H](O)CC2CC(=O)NC(=O)C2)C(=O)[C@@H](C)C1
T/C (dose: 5.0 mg/kg/injection, schedule: Q#A X022 (ip), vehicle: alkali diluted with saline): 103 % of control
T/C (dose: 6.63 mg/kg/injection, schedule: Q01DX011 (ip), vehicle: carboxymethylcellulose (CMC)): 51 % of control
T/C (dose: 7.5 mg/kg/injection, schedule: Q01DX011 (ip), vehicle: methylcellulose (MC)): 89 % of control
T/C (dose: 8.63 mg/kg/injection, schedule: Q01DX011 (ip), vehicle: carboxymethylcellulose (CMC)): 87 % of control
T/C (dose: 9.5 mg/kg/injection, schedule: Q01DX011 (ip), vehicle: carboxymethylcellulose (CMC)): 103 % of control and 117 % of control
T/C (dose: 10.0 mg/kg/injection, schedule: Q01DX011 (im), vehicle: alkali diluted with saline): 79 % of control
T/C (dose: 10.0 mg/kg/injection, schedule: Q01DX011 (ip), vehicle: alkali diluted with saline): 66 % of control and 75 % of control
T/C (dose: 10.0 mg/kg/injection, schedule: Q01DX011 (oral), vehicle: alkali diluted with saline): 62 % of control
T/C (dose: 10.0 mg/kg/injection, schedule: Q01DX011 (sc), vehicle: steriod suspending solution): 99 % of control
T/C (dose: 10.0 mg/kg/injection, schedule: Q#A X022 (ip), vehicle: alkali diluted with saline): 64 % of control
T/C (dose: 12.5 mg/kg/injection, schedule: Q01DX011 (ip), vehicle: methylcellulose (MC)): 71 % of control
T/C (dose: 13.25 mg/kg/injection, schedule: Q01DX011 (ip), vehicle: carboxymethylcellulose (CMC)): 120 % of control
T/C (dose: 13.8 mg/kg/injection, schedule: Q01DX011 (ip), vehicle: carboxymethylcellulose (CMC)): 38 % of control
T/C (dose: 15.0 mg/kg/injection, schedule: Q01DX011 (ip), vehicle: methylcellulose (MC)): 49 % of control
T/C (dose: 17.25 mg/kg/injection, schedule: Q01DX011 (ip), vehicle: carboxymethylcellulose (CMC)): 50 % of control and 65 % of control
T/C (dose: 19.0 mg/kg/injection, schedule: Q01DX011 (ip), vehicle: carboxymethylcellulose (CMC)): 56 % of control and 59 % of control
T/C (dose: 20.0 mg/kg/injection, schedule: Q01DX006 (iv), vehicle: alkali diluted with saline): 91 % of control
T/C (dose: 20.0 mg/kg/injection, schedule: Q01DX011 (im), vehicle: alkali diluted with saline): 76 % of control
T/C (dose: 20.0 mg/kg/injection, schedule: Q01DX011 (oral), vehicle: alkali diluted with saline): 63 % of control
T/C (dose: 20.0 mg/kg/injection, schedule: Q01DX011 (sc), vehicle: steriod suspending solution): 48 % of control
T/C (dose: 23.0 mg/kg/injection, schedule: Q01DX011 (ip), vehicle: carboxymethylcellulose (CMC)): 31 % of control
T/C (dose: 25.0 mg/kg/injection, schedule: Q01DX011 (ip), vehicle: methylcellulose (MC)): 47 % of control
T/C (dose: 26.5 mg/kg/injection, schedule: Q01DX011 (ip), vehicle: carboxymethylcellulose (CMC)): 50 % of control
T/C (dose: 30.0 mg/kg/injection, schedule: Q01DX011 (ip), vehicle: methylcellulose (MC)): 33 % of control
T/C (dose: 30.0 mg/kg/injection, schedule: Q03DX004 (ip), vehicle: alkali diluted with saline): 117 % of control
T/C (dose: 34.5 mg/kg/injection, schedule: Q01DX011 (ip), vehicle: carboxymethylcellulose (CMC)): 12 % of control and 13 % of control
T/C (dose: 38.0 mg/kg/injection, schedule: Q01DX011 (ip), vehicle: carboxymethylcellulose (CMC)): 27 % of control and 32 % of control
T/C (dose: 40.0 mg/kg/injection, schedule: Q01DX006 (iv), vehicle: alkali diluted with saline): 95 % of control and 76 % of control
T/C (dose: 40.0 mg/kg/injection, schedule: Q01DX011 (oral), vehicle: alkali diluted with saline): 18 % of control and 42 % of control
T/C (dose: 40.0 mg/kg/injection, schedule: Q01DX011 (sc), vehicle: steriod suspending solution): 48 % of control
T/C (dose: 40.0 mg/kg/injection, schedule: Q#A X022 (ip), vehicle: alkali diluted with saline): 22 % of control and 36 % of control
T/C (dose: 50.0 mg/kg/injection, schedule: Q01DX001 (ip), vehicle: alkali diluted with saline): 88 % of control
T/C (dose: 50.0 mg/kg/injection, schedule: Q01DX011 (ip), vehicle: methylcellulose (MC)): 13 % of control
T/C (dose: 60.0 mg/kg/injection, schedule: Q01DX011 (ip), vehicle: methylcellulose (MC)): 6 % of control
T/C (dose: 60.0 mg/kg/injection, schedule: Q03DX004 (ip), vehicle: alkali diluted with saline): 47 % of control
T/C (dose: 80.0 mg/kg/injection, schedule: Q01DX006 (iv), vehicle: alkali diluted with saline): 92 % of control and 93 % of control
T/C (dose: 80.0 mg/kg/injection, schedule: Q01DX011 (im), vehicle: alkali diluted with saline): 4 % of control and 9 % of control
T/C (dose: 80.0 mg/kg/injection, schedule: Q01DX011 (ip), vehicle: alkali diluted with saline): 9 % of control and 21 % of control
T/C (dose: 100.0 mg/kg/injection, schedule: Q01DX001 (ip), vehicle: alkali diluted with saline): 63 % of control
T/C (dose: 120.0 mg/kg/injection, schedule: Q03DX004 (ip), vehicle: alkali diluted with saline): 41 % of control
T/C (dose: 160.0 mg/kg/injection, schedule: Q01DX006 (iv), vehicle: alkali diluted with saline): 24 % of control
T/C (dose: 200.0 mg/kg/injection, schedule: Q01DX001 (ip), vehicle: alkali diluted with saline): 186 % of control
T/C (dose: 400.0 mg/kg/injection, schedule: Q01DX001 (ip), vehicle: alkali diluted with saline): 89 % of control

C[C@H](N)C(=O)N[C@@H]1[C@H]2C(=C(O)C[C@@H](O)[C@@H]2O)C(=O)O[C@@H]1C
T/C (dose: 250.0 mg/kg/injection, schedule: Q01DX011 (ip), vehicle: saline): 79 % of control
T/C (dose: 500.0 mg/kg/injection, schedule: Q01DX011 (ip), vehicle: saline): 64 % of control

O=c1cc2[nH]c(O)cn2c(=O)[nH]1
T/C (dose: 30.0 mg/kg/injection, schedule: Q01DX011 (ip), vehicle: carboxymethylcellulose (CMC)): 95 % of control and 73 % of control
T/C (dose: 120.0 mg/kg/injection, schedule: Q01DX011 (ip), vehicle: carboxymethylcellulose (CMC)): 47 % of control
T/C (dose: 240.0 mg/kg/injection, schedule: Q01DX011 (ip), vehicle: carboxymethylcellulose (CMC)): 64 % of control

OC1c2cc(Cl)ccc2-c2c(Cl)cc(Cl)cc21 (stereo unspecified)
T/C (dose: 50.0 mg/kg/injection, schedule: Q01DX011 (ip), vehicle: other): 37 % of control
T/C (dose: 100.0 mg/kg/injection, schedule: Q01DX011 (ip), vehicle: other): 41 % of control
T/C (dose: 200.0 mg/kg/injection, schedule: Q01DX011 (ip), vehicle: other): 19 % of control
T/C (dose: 400.0 mg/kg/injection, schedule: Q01DX011 (ip), vehicle: other): 10 % of control

CS(=O)(=O)OCCC(=O)NCCCCCNC(=O)CCOS(C)(=O)=O
T/C (dose: 57.0 mg/kg/injection, schedule: Q01DX011 (ip), vehicle: methylcellulose (MC)): 64 % of control
T/C (dose: 113.0 mg/kg/injection, schedule: Q01DX011 (ip), vehicle: methylcellulose (MC)): 53 % of control
T/C (dose: 225.0 mg/kg/injection, schedule: Q01DX011 (ip), vehicle: methylcellulose (MC)): 30 % of control

COC1=NC2=NCCN2C(OC)=N1
T/C (dose: 25.0 mg/kg/injection, schedule: Q01DX011 (ip), vehicle: saline): 94 % of control
T/C (dose: 75.0 mg/kg/injection, schedule: Q01DX011 (ip), vehicle: saline): 69 % of control
T/C (dose: 225.0 mg/kg/injection, schedule: Q01DX011 (ip), vehicle: saline): 54 % of control

Nc1nc(SCc2ccccc2)c2ncn(C3CCCC3)c2n1
T/C (dose: 4.6 mg/kg/injection, schedule: Q01DX011 (ip), vehicle: carboxymethylcellulose (CMC)): 79 % of control
T/C (dose: 9.3 mg/kg/injection, schedule: Q01DX011 (ip), vehicle: carboxymethylcellulose (CMC)): 70 % of control
T/C (dose: 18.7 mg/kg/injection, schedule: Q01DX011 (ip), vehicle: carboxymethylcellulose (CMC)): 69 % of control
T/C (dose: 37.5 mg/kg/injection, schedule: Q01DX011 (ip), vehicle: carboxymethylcellulose (CMC)): 24 % of control
T/C (dose: 75.0 mg/kg/injection, schedule: Q01DX011 (ip), vehicle: carboxymethylcellulose (CMC)): 11 % of control
T/C (dose: 150.0 mg/kg/injection, schedule: Q01DX011 (ip), vehicle: carboxymethylcellulose (CMC)): 2 % of control
T/C (dose: 300.0 mg/kg/injection, schedule: Q01DX011 (ip), vehicle: carboxymethylcellulose (CMC)): 1 % of control
T/C (dose: 375.0 mg/kg/injection, schedule: Q01DX011 (ip), vehicle: carboxymethylcellulose (CMC)): 33 % of control

COc1ccc2c(c1)CCC(c1ccccc1)=C2c1ccc(OCCN2CCCC2)cc1
T/C (dose: 3.0 mg/kg/injection, schedule: Q01DX011 (sc), vehicle: steriod suspending solution): 86 % of control
T/C (dose: 6.0 mg/kg/injection, schedule: Q01DX011 (sc), vehicle: steriod suspending solution): 82 % of control
T/C (dose: 12.0 mg/kg/injection, schedule: Q01DX011 (sc), vehicle: steriod suspending solution): 34 % of control
T/C (dose: 25.0 mg/kg/injection, schedule: Q01DX011 (sc), vehicle: steriod suspending solution): 26 % of control
